Activity calls are given as the source filed them. No cut-off for these calls is given here.
Legend:
HepG2 = test: Growth inhibition of human HepG2 cells after 48 hrs by MTT assay; assay type: functional, cell-based; conditions: HepG2, 48 h
K562 = test: Growth inhibition of human K562 cells after 48 hrs by MTT assay; assay type: functional, cell-based; conditions: K562, 48 h
SMMC-7721 = test: Growth inhibition of human SMMC7721 cells after 48 hrs by MTT assay; assay type: functional, cell-based; conditions: SMMC-7721, 48 h
HCT-116 [1] = test: Growth inhibition of human HCT116 cells after 48 hrs by MTT assay; assay type: functional, cell-based; conditions: HCT-116, 48 h
HCT-116 [2] = test: Downregulation of beta-catenin protein expression in human HCT116 cells at 10 uM after 24 hrs by Western blot method; assay type: functional, cell-based
HCT-116 [3] = test: Growth inhibition of human HCT116 cells after 24 hrs by MTT assay; assay type: functional, cell-based
HCT-116 [4] = test: Induction of apoptosis in human HCT116 cells assessed as necrotic cells at 10 uM after 24 hrs by annexin V-FITC/propidium iodide staining based flow cytometry (reference value: 3.9%); assay type: functional
Mus musculus [5] = test: Toxicity in Balb/c mouse implanted with mouse CT26 cells assessed as changes in body weight at 5 mg/kg, iv for 14 consecutive days starting from day 8 post tumor implantation; assay type: organism-based; conditions: in vivo
CT26 [6] = test: Induction of apoptosis in mouse CT26 cells assessed as necrotic cells at 10 uM after 24 hrs by annexin V-FITC/propidium iodide staining based flow cytometry (reference value: 4.36%); assay type: functional
CT26 [7] = test: Induction of apoptosis in mouse CT26 cells assessed as late apoptotic cells at 10 uM after 24 hrs by annexin V-FITC/propidium iodide staining based flow cytometry (reference value: 2.26%); assay type: functional
HCT-116 [8] = test: Downregulation of MMP2 protein expression in human HCT116 cells at 10 uM after 24 hrs by Western blot method; assay type: functional, cell-based
CT26 [9] = test: Growth inhibition of mouse CT26 cells after 24 hrs by MTT assay; assay type: functional, cell-based
Mus musculus [10] = test: Toxicity in Balb/c mouse implanted with mouse CT26 cells assessed as changes in body weight at 5 mg/kg, iv for 7 consecutive days starting from day 8 post tumor implantation; assay type: organism-based; conditions: in vivo
HCT-116 [11] = test: Induction of apoptosis in human HCT116 cells assessed as early apoptotic cells at 10 uM after 24 hrs by annexin V-FITC/propidium iodide staining based flow cytometry (reference value: 4.1%); assay type: functional
CT26 [12] = test: Induction of apoptosis in mouse CT26 cells assessed as early apoptotic cells at 10 uM after 24 hrs by annexin V-FITC/propidium iodide staining based flow cytometry (reference value: 3.91%); assay type: functional
CT26 [13] = test: Antimigratory activity against mouse CT26 cells at 10 uM after 24 hrs by crystal violet staining based transwell assay; assay type: functional, cell-based
CT26 [14] = test: Antimetastatic activity against mouse CT26 cells implanted in Balb/c mouse assessed as inhibition of pulmonary metastasis nodules at 5 mg/kg, iv for 7 consecutive days starting from day 8 post tumor implantation measured on day 15 post tumor implantation relative to control; assay type: functional
HCT-116 [15] = test: Induction of apoptosis in human HCT116 cells assessed as live cells at 10 uM after 24 hrs by annexin V-FITC/propidium iodide staining based flow cytometry (reference value: 89.97%); assay type: functional
CT26 [16] = test: Induction of apoptosis in mouse CT26 cells assessed as live cells at 10 uM after 24 hrs by annexin V-FITC/propidium iodide staining based flow cytometry (reference value: 89.47%); assay type: functional
CT26 [17] = test: Antitumor activity against mouse CT26 cells implanted in Balb/c mouse assessed as solid tumor growth inhibition at 5 mg/kg, iv for 14 consecutive days measured on day 15 relative to control; assay type: functional; conditions: 360 h, read-out: TGI
HCT-116 [18] = test: Antimigratory activity against human HCT116 cells at 10 uM after 24 hrs by crystal violet staining based transwell assay; assay type: functional, cell-based
HCT-116 [19] = test: Induction of apoptosis in human HCT116 cells assessed as late apoptotic cells at 10 uM after 24 hrs by annexin V-FITC/propidium iodide staining based flow cytometry (reference value: 2.03%); assay type: functional

| SMILES | IC50 (HepG2) [µM] | IC50 (K562) [µM] | IC50 (SMMC-7721) [µM] | IC50 (HCT-116 [1]) [µM] | further results |
| --- | --- | --- | --- | --- | --- |
| CCCCN1C(=O)c2cccc3c(NC(=O)CNCCCCNCCCCNCCCCN)ccc1c23 | 16.1 | > 50 | 18 | > 50 | – |
| CCCCN1C(=O)c2cccc3c(NC(=O)CNCCCCNCCCCN)ccc1c23 | 21.9 | > 50 | 23.3 | > 50 | – |
| CCCCN1C(=O)c2cccc3c(NC(=O)CNCCCNCCCNCCCN)ccc1c23 | > 50 | > 50 | > 50 | > 50 | – |
| CN(C)CCN1C(=O)c2cccc3cc(N)cc(c23)C1=O [AMONAFIDE] | 11.7 | 20.1 | 10.3 | 7.18 | Activity (HCT-116 [2]): Active; growth inhibition (GI) (HCT-116 [3]): Dose-dependent effect; IC50 (HCT-116 [3]; HCT-116, 24 h): 8.55 µM; Activity (HCT-116 [4]): 7.6%; Activity (Mus musculus [5]): Non-Toxic; Activity (CT26 [6]): 3.92%; Activity (CT26 [7]): 20.3%; Activity (HCT-116 [8]): Active; growth inhibition (GI) (CT26 [9]): Dose-dependent effect; IC50 (CT26 [9]; CT26, 24 h): 11.7 µM; Activity (Mus musculus [10]): Non-Toxic; Activity (HCT-116 [11]): 14.9%; Activity (CT26 [12]): 27.2%; Activity (CT26 [13]): Active; inhibition in vivo at 5 mg/kg (CT26 [14]): 66%; Activity (HCT-116 [15]): 40.53%; Activity (CT26 [16]): 48.49%; inhibition in vivo at 5 mg/kg (CT26 [17]): 20%; Activity (HCT-116 [18]): Active; Activity (HCT-116 [19]): 36.9% |
| CCCCN1C(=O)c2cccc3c(NC(=O)CNCCCCN)ccc1c23 | > 50 | > 50 | > 50 | > 50 | – |
| CCCCN1C(=O)c2cccc3c(NC(=O)CNCCCNCCCN)ccc1c23 | > 50 | > 50 | > 50 | > 50 | – |

Second part, led by results:

| IC50 (HepG2) [µM] | IC50 (K562) [µM] | IC50 (SMMC-7721) [µM] | IC50 (HCT-116 [1]) [µM] | SMILES | further results |
| --- | --- | --- | --- | --- | --- |
| > 50 | 11.5 | 19.4 | 16.9 | NCCCNCCCN1C(=O)c2cccc3cccc1c23 | – |
| > 50 | > 50 | 43.9 | > 50 | NCCCCNCCCCN1C(=O)c2cccc3cccc1c23 | – |
| 25.4 | 28.7 | 26.1 | 11.1 | NCCCNCCCCNCCCN1C(=O)c2cccc3cccc1c23 | – |
| 14.6 | 26.1 | 19.4 | 12 | NCCCNCCCNCCCN1C(=O)c2cccc3cccc1c23 | – |
| 10.1 | > 50 | 25.4 | 16.9 | CCCCN1C(=O)c2cccc3c(CNCCCCN)ccc1c23 | – |
| 3.27 | 23.5 | 5.59 | 28.3 | CCCCN1C(=O)c2cccc3c(CNCCCNCCCN)ccc1c23 | – |

— ChEMBL document CHEMBL4130638, “Discovery of the Polyamine Conjugate with Benzo[ cd]indol-2(1 H)-one as a Lysosome-Targeted Antimetastatic Agent” (J Med Chem, 2018)
